Assays:
Botrytis cinerea [1] = assay: Control test of cucumber gray mold (sprayed young cucumber seedlings); type: in vivo; settings: 96 h, four days after inoculation; for pest or weed control at 125 ppm: 125 ppm by mass spray; for pest or weed control at 25 ppm: 25 ppm by mass spray
Procedure: Then, the drug liquid was sprayed onto young cucumber seedlings cultivated in a nursery pot (variety “Jihai”-based, cotyledon stage), and then air-dried. […] They were left still in a moist room at 20° C. Four days after inoculation, leaves of the young cucumber seedlings were visually observed, and the control value was calculated from the lesion area ratio in accordance with the following equation. [formula]

Colletotrichum acutatum = assay: Fungicidal effect test against fungi causing apple anthracnose; settings: 96 h, read-out: growth inhibition ratio
Glomerella cingulata = assay: Fungicidal effect test against fungi causing grape ripe rot disease; settings: Colletotrichum gloeosporioides, 72 h, read-out: growth inhibition ratio
Botrytis cinerea [2] = type: cell-based; settings: 120 h, 25 ppm by volume, Vogel medium, 20° C., five days, dark, read-out: growth inhibition ratio
[3] = tested on: Erysiphe graminis f.sp.tritici; assay: Control test of wheat powdery mildew disease (sprayed young wheat seedlings); type: in vivo; settings: Blumeria graminis, 144 h, 125 ppm by mass spray, six days after inoculation
From the text: [formula] […] Then, the drug liquid was sprayed onto young wheat seedlings cultivated in a nursery pot (variety “Chihoku”, one-to two-leaf stage), and then air-dried. Thereafter, conidiospores of fungi causing wheat powdery mildew disease (Erysiphe graminis f.sp.tritici) were sprinkled on the young wheat seedlings to inoculate them (treated area). As a control, the conidiospores of fungi causing wheat powdery mildew disease (Erysiphe graminis f.sp.tritici) were sprinkled on young wheat seedlings unsprayed with the drug liquid (untreated area). They were left still in a greenhouse at 20° C. Six days after inoculation, leaves of young wheat seedlings were visually observed, and the lesion area ratio was determined to calculate the control value in a similar manner to the previous test.

CC(=O)N(Cc1ccc(C)cc1C)NC(=O)c1c(Oc2cccc(C3CC3)c2F)nnc(Cl)c1C [b-10]
≥ 75%: pest or weed control at 125 ppm (Botrytis cinerea [1]) | inhibition of growth at 25 ppm (Colletotrichum acutatum) | inhibition of growth at 25 ppm (Glomerella cingulata) | inhibition of growth at 25 ppm (Botrytis cinerea [2])

CC(=O)N(Cc1ccc(Cl)cc1Cl)NC(=O)c1cc(C)nnc1Oc1cccc(C2CC2)c1F [b-13]
≥ 75%: pest or weed control at 125 ppm (Botrytis cinerea [1]) | inhibition of growth at 25 ppm (Colletotrichum acutatum) | inhibition of growth at 25 ppm (Glomerella cingulata) | inhibition of growth at 25 ppm (Botrytis cinerea [2]) | pest or weed control at 125 ppm [3]

Cc1ccc(CN(NC(=O)c2cc(C)nnc2Oc2cccc(C3CC3)c2F)C(=O)C2COC2)c(C)c1 [b-40]
≥ 75%: inhibition of growth at 25 ppm (Colletotrichum acutatum) | inhibition of growth at 25 ppm (Glomerella cingulata) | inhibition of growth at 25 ppm (Botrytis cinerea [2]) | pest or weed control at 125 ppm [3]

CCc1cccc(Oc2nnc(C)cc2C(=O)NN(Cc2ccc(C)cc2C)C(=O)OC)c1 [b-50]
≥ 75%: pest or weed control at 125 ppm (Botrytis cinerea [1]) | inhibition of growth at 25 ppm (Colletotrichum acutatum) | inhibition of growth at 25 ppm (Glomerella cingulata) | inhibition of growth at 25 ppm (Botrytis cinerea [2]) | pest or weed control at 125 ppm [3]

CCc1ccc(Oc2nnc(C)cc2C(=O)NN(Cc2ccc(C)cc2C)C(=O)OC)cc1 [b-51]
≥ 75%: inhibition of growth at 25 ppm (Colletotrichum acutatum) | inhibition of growth at 25 ppm (Glomerella cingulata) | inhibition of growth at 25 ppm (Botrytis cinerea [2]) | pest or weed control at 125 ppm [3]

COC(=O)N(Cc1ccc(C)cc1C)NC(=S)c1cc(C)nnc1Oc1cccc(C2CC2)c1F [b-59, Methyl 2-(3-(3-cyclopropyl-2-fluorophenoxy)-6-methylpyridazine-4-carbonothioyl)-1-(2,4-dimethylbenzyl)hydrazine-1-carboxylate]
≥ 75%: pest or weed control at 125 ppm (Botrytis cinerea [1]) | inhibition of growth at 25 ppm (Colletotrichum acutatum) | inhibition of growth at 25 ppm (Glomerella cingulata) | inhibition of growth at 25 ppm (Botrytis cinerea [2])

COC(=O)N(Cc1ccc(C)nc1C)NC(=O)c1cc(C)nnc1Oc1cccc(C2CC2)c1F [b-60]
≥ 75%: inhibition of growth at 25 ppm (Colletotrichum acutatum) | inhibition of growth at 25 ppm (Glomerella cingulata) | pest or weed control at 125 ppm [3]

COC(=O)N(Cc1ccc(C)cc1C)NC(=O)c1cc(C)nnc1Oc1ccc(C)c(Br)c1 [b-62]
≥ 75%: inhibition of growth at 25 ppm (Colletotrichum acutatum) | inhibition of growth at 25 ppm (Glomerella cingulata) | inhibition of growth at 25 ppm (Botrytis cinerea [2]) | pest or weed control at 125 ppm [3]

CC(=O)N(Cc1ccc(C)cc1C)NC(=O)c1nc(C)ncc1Oc1cccc(C2CC2)c1F [b-64]
≥ 75%: pest or weed control at 125 ppm (Botrytis cinerea [1]) | inhibition of growth at 25 ppm (Colletotrichum acutatum) | inhibition of growth at 25 ppm (Glomerella cingulata) | inhibition of growth at 25 ppm (Botrytis cinerea [2])

COC(=O)N(Cc1ccc(C)cc1C)NC(=O)c1cc(C)nnc1Oc1cccc(C#N)c1F [b-69]
≥ 75%: inhibition of growth at 25 ppm (Colletotrichum acutatum) | inhibition of growth at 25 ppm (Glomerella cingulata) | inhibition of growth at 25 ppm (Botrytis cinerea [2]) | pest or weed control at 125 ppm [3]

COC(=O)N(NC(=O)c1cc(C)nnc1Oc1cccc(C2CC2)c1F)C(C)c1ccc(C)cc1C (centres unmarked) [b-72]
≥ 75%: pest or weed control at 25 ppm (Botrytis cinerea [1]) | inhibition of growth at 25 ppm (Colletotrichum acutatum) | inhibition of growth at 25 ppm (Glomerella cingulata) | inhibition of growth at 25 ppm (Botrytis cinerea [2])

COC(=O)N(Cc1ccc(Cl)nc1Cl)NC(=O)c1cc(C)nnc1Oc1cccc(C2CC2)c1F [b-93, Methyl 2-(3-(3-cyclopropyl-2-fluorophenoxy)-6-methylpyridazine-4-carbonyl)-1-((2,6-dichloropyridin-3-yl)methyl)hydrazine-1-carboxylate]
≥ 75%: inhibition of growth at 25 ppm (Colletotrichum acutatum) | inhibition of growth at 25 ppm (Glomerella cingulata) | inhibition of growth at 25 ppm (Botrytis cinerea [2]) | pest or weed control at 125 ppm [3]

COC(=O)N(Cc1ccc(OC)cc1C)NC(=O)c1nc(C)ncc1Oc1cccc(C2CC2)c1F [b-105]
≥ 75%: pest or weed control at 25 ppm (Botrytis cinerea [1]) | inhibition of growth at 25 ppm (Colletotrichum acutatum) | inhibition of growth at 25 ppm (Glomerella cingulata) | inhibition of growth at 25 ppm (Botrytis cinerea [2])

COC(=O)N(Cc1ccc(C)cc1C)NC(=O)c1nc(C)nnc1Oc1cccc(C2CC2)c1F [b-115]
≥ 75%: pest or weed control at 25 ppm (Botrytis cinerea [1]) | inhibition of growth at 25 ppm (Colletotrichum acutatum) | inhibition of growth at 25 ppm (Glomerella cingulata) | inhibition of growth at 25 ppm (Botrytis cinerea [2])

COC(=O)N(Cc1sc(C)cc1C)NC(=O)c1cc(C)nnc1Oc1cccc(C2CC2)c1F [b-122, Methyl 2-(3-(3-cyclopropyl-2-fluorophenoxy)-6-methylpyridazine-4-carbonyl)-1-((3,5-dimethylthiophen-2-yl)methyl)hydrazine-1-carboxylate]
≥ 75%: pest or weed control at 125 ppm (Botrytis cinerea [1]) | inhibition of growth at 25 ppm (Colletotrichum acutatum) | inhibition of growth at 25 ppm (Glomerella cingulata) | inhibition of growth at 25 ppm (Botrytis cinerea [2])

COC(=O)N(Cc1ccc(C)cc1C)NC(=O)c1cc(N(C)C)ncc1Oc1cccc(C2CC2)c1F [b-125]
≥ 75%: inhibition of growth at 25 ppm (Colletotrichum acutatum) | inhibition of growth at 25 ppm (Glomerella cingulata) | inhibition of growth at 25 ppm (Botrytis cinerea [2]) | pest or weed control at 125 ppm [3]

COC(=O)N(Cc1ccc(OC)cc1C)NC(=O)c1nc(C)nnc1Oc1cccc(C2CC2)c1F [b-130]
≥ 75%: pest or weed control at 25 ppm (Botrytis cinerea [1]) | pest or weed control at 125 ppm (Botrytis cinerea [1]) | inhibition of growth at 25 ppm (Colletotrichum acutatum) | inhibition of growth at 25 ppm (Glomerella cingulata) | inhibition of growth at 25 ppm (Botrytis cinerea [2])

COC(=O)N(Cc1ccc([N+](=O)[O-])cc1C)NC(=O)c1cc(C)nnc1Oc1cccc(C2CC2)c1F [b-162]
≥ 75%: inhibition of growth at 25 ppm (Colletotrichum acutatum) | inhibition of growth at 25 ppm (Glomerella cingulata) | inhibition of growth at 25 ppm (Botrytis cinerea [2]) | pest or weed control at 125 ppm [3]

Cc1ccc(CN(NC(=O)c2cc(C)nnc2Oc2cccc(C3CC3)c2F)C(=O)OCC(F)F)c(C)c1 [b-197]
≥ 75%: pest or weed control at 25 ppm (Botrytis cinerea [1]) | pest or weed control at 125 ppm (Botrytis cinerea [1]) | inhibition of growth at 25 ppm (Colletotrichum acutatum) | inhibition of growth at 25 ppm (Glomerella cingulata) | inhibition of growth at 25 ppm (Botrytis cinerea [2])

COC(=O)N(Cc1ccc(C)cc1C)NC(=O)c1c(Oc2cccc(C3CC3)c2F)cncc1C(C)=O [b-221]
≥ 75%: inhibition of growth at 25 ppm (Colletotrichum acutatum) | inhibition of growth at 25 ppm (Glomerella cingulata) | inhibition of growth at 25 ppm (Botrytis cinerea [2])

COC(=O)N(Cc1ccc(C)cc1C)NC(=O)c1c(Oc2cccc(C3CC3)c2)cnn(C(C)C)c1=O [b-224]
≥ 75%: pest or weed control at 125 ppm (Botrytis cinerea [1]) | inhibition of growth at 25 ppm (Colletotrichum acutatum) | inhibition of growth at 25 ppm (Glomerella cingulata) | inhibition of growth at 25 ppm (Botrytis cinerea [2])

COC(=O)N(Cc1ccc(OC)cc1C)NC(=O)c1c(Oc2cccc(C3CC3)c2)cnn(C(C)C)c1=O [b-225]
≥ 75%: inhibition of growth at 25 ppm (Colletotrichum acutatum) | inhibition of growth at 25 ppm (Glomerella cingulata) | inhibition of growth at 25 ppm (Botrytis cinerea [2])
